From patent publication US10898471B2, “Methods of inhibiting leukotriene A4 hydrolase” (Celltaxis, LLC, priority 2013, dated 2021) come the findings set out here.

In general, IC50 refers to the concentration at which inhibition is half-maximal.

The nature of data set [1]: human pharmacokinetics: plasma concentration over time after oral dose. It is filed as in vivo. On the procedure: The two sets of dashed, horizontal lines indicate the plasma concentration that is three-times (3×) the IC50 and the plasma concentration that is one-time (1×) the IC50 of 4-{[(1S,4S)-5-({4-[4-oxazol-2-yl-phenoxy]phenyl}methyl)-2,5-diazabicyclo[2.2.1]heptan-2-yl]methyl}benzoic acid in human blood.
(§1) Thus, oral human doses as low as 10 mg can provide therapeutic benefit in the current formulation and, with improved formulation, doses as low as 5 mg can achieve therapeutic levels of the compound in blood.

The next data set addresses T1, LTA4-h (Homo sapiens, UniProt P09960).
T1 construct: in human whole blood has been determined using an ex vivo assay; from tissue; host or cells: human whole blood (male and female donors)
T1 sequence (P09960 1-611): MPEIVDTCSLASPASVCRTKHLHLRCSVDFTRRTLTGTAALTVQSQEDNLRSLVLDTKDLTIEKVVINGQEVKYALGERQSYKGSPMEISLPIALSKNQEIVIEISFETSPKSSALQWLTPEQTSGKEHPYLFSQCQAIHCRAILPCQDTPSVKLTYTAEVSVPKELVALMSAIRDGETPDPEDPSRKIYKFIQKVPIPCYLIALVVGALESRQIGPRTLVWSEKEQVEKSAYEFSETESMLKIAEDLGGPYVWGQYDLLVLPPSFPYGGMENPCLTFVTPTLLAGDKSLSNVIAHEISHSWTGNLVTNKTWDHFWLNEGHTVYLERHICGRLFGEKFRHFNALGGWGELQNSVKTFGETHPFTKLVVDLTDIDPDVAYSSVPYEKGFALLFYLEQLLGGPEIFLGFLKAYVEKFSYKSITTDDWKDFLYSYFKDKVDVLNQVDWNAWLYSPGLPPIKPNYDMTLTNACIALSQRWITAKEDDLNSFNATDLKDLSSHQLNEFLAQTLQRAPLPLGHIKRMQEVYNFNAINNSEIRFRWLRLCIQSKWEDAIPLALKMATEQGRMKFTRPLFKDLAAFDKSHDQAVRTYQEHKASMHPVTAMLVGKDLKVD
The experiment in a line: human whole blood ex vivo assay: A23187-stimulated LTB4 production measured by ELISA. Type of data set: cell-based. The note with it: IC50 in human whole blood.
Source text: The IC50 of 4-{[(1S,4S)-5-({4-[4-oxazol-2-yl-phenoxy]phenyl}methyl)-2,5-diazabicyclo[2.2.1]heptan-2-yl]methyl}benzoic acid in human whole blood has been determined using an ex vivo assay. The human whole blood assay has been described in Penning et al (2000), Structure and Activity Relationship Studies on 1-[2-(4-Phenylphenoxy)ethyl]pyrrolidone (SC-22716), a Potent Inhibitor of Leukotriene A4 (LTA4) hydrolase, J. Med. Chem. 43: 721-735, the contents of which are expressly incorporated by reference herein. In this assay, LTB4 production is stimulated by addition of calcium ionophone (A23187) in the absence or presence of varied concentrations of 4-{[(1S,4S)-5-({4-[4-oxazol-2-yl-phenoxy]phenyl}methyl)-2,5-diazabicyclo[2.2.1]heptan-2-yl]methyl}benzoic acid. The ability of 4-{[(1S,4S)-5-({4-[4-oxazol-2-yl-phenoxy]phenyl}methyl)-2,5-diazabicyclo[2.2.1]heptan-2-yl]methyl}benzoic acid to reduce is LTB4 production is determined by ELISA. This ELISA assay was performed using the Leukotriene B4 EIA Kit available from Cayman Chemical (Item No. 520111) and the assay was performed according to the manufacturer's instructions.
as §1
In general terms: An ELISA detects its analyte on a solid surface through an enzyme-linked reagent.

Regarding `O=C(O)c1ccc(CN2C[C@@H]3C[C@H]2CN3Cc2ccc(Oc3ccc(-c4ncco4)cc3)cc2)cc1` [4-{[(1S,4S)-5-({4-[4-oxazol-2-yl-phenoxy]phenyl}methyl)-2,5-diazabicyclo[2.2.1]heptan-2-yl]methyl}benzoic acid], the “peak plasma concentration relative to the IC50” value in data set [1] (5 mg oral dose) was “nearly achieves the IC50”. Further, in data set [1] (15 mg oral dose), the “time for which the blood plasma level exceeds the IC50” value is “over 12 hours”. Moreover, in data set [1] (50 mg oral dose), the “time for which the blood plasma level exceeds 3-times the IC50” value is recorded as “over 24 hours”. Besides, the IC50 was 68 nM against LTA4-h (female blood); roughly 62.3 nM at LTA4-h (human whole blood, LTB4 production stimulated by calcium ionophore A23187); 60 nM at LTA4-h (male blood).
